Measured values published in US7897788B2, “Indol-1-yl-acetic acid derivatives” (Actelion Pharmaceutical Ltd., priority 2004, dated 2011).

Tests used:
hCRTH2 receptor [1] = target: T1, hCRTH2 receptor (Homo sapiens, UniProt Q9Y5Y4); assay: Intracellular calcium mobilization assay (FLIPR), Example B-2; format: cell-based; details: HEK-293 cells expressing hCRTH2; 10 nM prostaglandin D2 as agonist; read-out: CRTH2 FLIPR IC50 (nM) (method B2 above)
T1 construct: expressed in transfected cells
T1 sequence (Q9Y5Y4 1-395): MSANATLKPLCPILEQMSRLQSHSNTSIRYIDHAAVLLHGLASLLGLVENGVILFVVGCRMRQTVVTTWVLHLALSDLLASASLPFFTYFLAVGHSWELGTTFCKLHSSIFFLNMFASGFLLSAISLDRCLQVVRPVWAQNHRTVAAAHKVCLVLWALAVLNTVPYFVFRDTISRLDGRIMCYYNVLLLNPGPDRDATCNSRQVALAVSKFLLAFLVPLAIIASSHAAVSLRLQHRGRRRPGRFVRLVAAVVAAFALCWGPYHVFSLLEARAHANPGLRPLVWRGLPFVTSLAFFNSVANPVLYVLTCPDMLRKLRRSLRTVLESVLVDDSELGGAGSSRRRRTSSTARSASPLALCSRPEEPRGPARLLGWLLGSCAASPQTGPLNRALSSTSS
Description: A functional assay with cells expressing the human CRTH2 receptor may be used to detect changes in the levels of intracellular calcium concentration following compound treatment. After addition of the compound the cells are challenged with PGD2. In a Fluorescent Imaging Plate Reader (FLIPR™, Molecular Devices, Sunnyvale, Calif.) fluorescence emission is recorded during both additions, emission peak values above base level after PGD2 addition were exported, normalized to low controls (no PGD2) and high controls (no active compound). The relative values of the remaining activity were used to determine IC50 values by curve fitting the data to a single site to a four-parameter logistic sigmoid dose response curve of the equation (A+((B−A)/(1+((C/x)^D)))).
The ability of the compounds to antagonize PGD2 induced change of intracellular calcium levels via CRTH2 activation may be measured by methods known of one skilled in the art or by the method described below in Example B-2.
Cells (HEK-293), stably expressing the hCRTH2 receptor under the control of the cytomegalovirus promotor from a single insertion of the expression vector pcDNA5 (Invitrogen), are grown to confluency in DMEM (low glucose, Gibco) medium supplemented with 10% fetal calf serum (both Bioconcept, Switzerland) under standard mammalian cell culture conditions (37° C. in a humidified atmosphere of 5% CO2). Cells are detached from culture dishes using a dissociation buffer (0.02% EDTA in PBS, Gibco) for 1 min, and collected by centrifugation at 200 g at rt for 5 min in assay buffer (equal parts of Hank's BSS (HBSS, Bioconcept) and DMEM (low glucose, without phenol red, Gibco)). After incubation for 45 min (37° C. and 5% CO2) in the presence of 1 μM Fluo-4 and 0.04% Pluronic F-127 (both Molecular Probes), 20 mM HEPES (Gibco) in assay buffer, the cells are washed with and resuspended in assay buffer, then seeded onto 384-well FLIPR assay plates (Greiner) at 50,000 cells in 66 μl per well), and sedimented by centrifugation.
Stock solutions of test compounds are made up at a concentration of 10 mM in DMSO, and serially diluted in assay buffer to concentrations required for inhibition dose response curves. Prostaglandin D2 (Biomol, Plymouth Meeting, Pa.) is used as an agonist.
A FLIPR384 instrument (Molecular Devices) is operated according to the manufacturer's standard instructions, adding 4 μl of test compound dissolved at 10 mM in DMSO and diluted prior to the experiment in assay buffer to obtain the desired final concentration. 10 μl of 80 nM prostaglandin D2 (Biomol, Plymouth Meeting, Pa.) in assay buffer, supplemented with 0.8% bovine serum albumin (fatty acid content<0.02%, Sigma), is then added to obtain a final concentration of 10 nM and 0.1%, respectively. Changes in fluorescence are monitored before and after the addition of test compounds at λex=488 nm and λem=540 nm. Emission peak values above base level after prostaglandin D2 addition are exported after base line subtraction. Values are normalized to high-level control (no test compound added) after subtraction of base line value (no prostaglandin D2 added). The program XLlfit 3.0 (IDBS) is used to fit the data to a single site dose response curve of the equation (A+((B−A)/(1+((C/x)^D)))) and to calculate the IC50 values.

hCRTH2 receptor [2] = target: T1, hCRTH2 receptor; assay: CRTH2 membranes radioligand binding assay ({3H}-PGD2), Example B-1; details: {3H}-PGD2 radioligand binding, read-out: CRTH2 binding IC50 (nM) (method B1 above)
Description: The ability of the compounds of formula I, IC1, IC2 or IP to bind to the CRTH2 receptor may be measured by methods similar to those described in Sawyer N. et al., Br. J. Pharmacol. (2002), 137, 1163-1172 and by the method described below in Example B-1.
Preparation of the membranes and radioligand binding assays are performed according to known procedures, e.g. Sawyer N. et al. (Br. J. Pharmacol., 2002, 137, 1163-1172). A clonal HEK 293 cell line, expressing high level of recombinant hCRTH2 receptor, is selected for the preparation of membranes. Cells are detached from culture plates in 5 ml buffer A per plate (5 mM Tris, 1 mM MgCl2x6H2O, 0.1 mM PMSF, 0.1 mM phenanthroline) using a police rubber and transferred into centrifugation tubes and frozen at −80° C. After thawing, the cells are centrifuged at 500 g for 5 min and then resuspended in buffer A. Cells are then fragmented by homogenization with a Polytron homogenizer for 30 s. The membrane fragments are centrifuged at 3000 g for 40 min and resuspended in membranes in buffer B (50 mM Tris, 25 mM MgCl2, 250 mM saccharose, pH 7.4) and aliquots are stored frozen.
Binding assay is performed in a total volume of 250 μl. In each well, 75 μl buffer C (50 mM Tris, 100 mM NaCl, 1 mM EDTA, 0.1% BSA (protease free), 0.01% NaN3, pH 7.4) was mixed with 50 μl {^3H}-PGD2 (at 2.5 nM (220.000 dpm per well) from Amersham, TRK734), 100 μl CRTH2 membranes to give 80 μg per well and 25 μl of test compound in buffer C containing 1% DMSO. For unspecific binding, PGD2 is added to the reaction mixture at 1 μM final concentration. This binding assay mix is incubated at rt for 90 min and then filtered through a GF/C filter plate. The filter is washed three times with ice cold binding buffer. Then, 40 μl per well Microscint-40 (Packard) are added and the bound radioactivity is quantified by means of Topcount (Packard).

IC50 (hCRTH2 receptor [1]) [nM]	IC50 (hCRTH2 receptor [2]) [nM]	Compound
182	15	CN(C(=O)/C(C#N)=C/c1cn(CC(=O)O)c2ccccc12)c1cccc(Cl)c1 [Example 101, (3-{(E)-2-[(3-chloro-phenyl)-methyl-carbamoyl]-2-cyano-vinyl}-indol-1-yl)-acetic acid]
61	11	CN(C(=O)/C(C#N)=C/c1cn(CC(=O)O)c2ccccc12)c1ccccc1 [Example 46, {3-[(E)-2-cyano-2-(methyl-phenyl-carbamoyl)-vinyl]-indol-1-yl}-acetic acid]
159	16	N#C/C(=C\c1cn(CC(=O)O)c2ccccc12)C(=O)N(CC(=O)O)c1ccccc1 [Example 99, {3-[(E)-2-(carboxymethyl-phenyl-carbamoyl)-2-cyano-vinyl]-indol-1-yl}-acetic acid]
54	9	N#C/C(=C\c1cn(CC(=O)O)c2ccccc12)C(=O)N1CCCc2ccccc21 [Example 47, {3-[(E)-2-cyano-3-(3,4-dihydro-2H-quinolin-1-yl)-3-oxo-propenyl]-indol-1-yl}-acetic acid]
48	7	COc1ccc(N(C)C(=O)/C(C#N)=C/c2cn(CC(=O)O)c3ccccc23)cc1 [Example 45, (3-{(E)-2-cyano-2-[(4-methoxy-phenyl)-methyl-carbamoyl]-vinyl}-indol-1-yl)-acetic acid]
151	42	N#C/C(=C\c1cn(CC(=O)O)c2ccccc12)C(=O)Nc1ccccc1Cc1ccccc1 [Example 29, {3-[(E)-2-(2-benzyl-phenylcarbamoyl)-2-cyano-vinyl]-indol-1-yl}-acetic acid]
47	17	CN(C(=O)/C(C#N)=C/c1cn(CC(=O)O)c2ccc(F)cc12)c1ccccc1C(F)(F)F [Example 141, (3-{(E)-2-cyano-2-[methyl-(2-trifluoromethyl-phenyl)-carbamoyl]-vinyl}-5-fluoro-indol-1-yl)-acetic acid]
253	49	Cc1ccc2c(/C=C(\C#N)C(=O)N3Cc4ccccc4Cc4ccccc43)cn(CC(=O)O)c2c1 [Example 149, {3-[(E)-2-cyano-3-(6,11-dihydro-dibenzo[b,e]azepin-5-yl)-3-oxo-propenyl]-6-methyl-indol-1-yl}-acetic acid]
90	29	N#C/C(=C\c1cn(CC(=O)O)c2ccccc12)C(=O)N(Cc1ccccc1)c1ccccc1 [Example 12, {3-[(E)-2-(benzyl-phenyl-carbamoyl)-2-cyano-vinyl]-indol-1-yl}-acetic acid]
57	12	N#C/C(=C\c1cn(CC(=O)O)c2ccccc12)C(=O)N1c2ccccc2C=Cc2ccccc21 [Example 87, sodium [3-((E)-2-cyano-3-dibenzo[b,f]azepin-5-yl-3-oxo-propenyl)-indol-1-yl]-acetate]
114	6	N#C/C(=C\c1cn(CC(=O)O)c2ccccc12)C(=O)N1Cc2ccccc2Cc2ccccc21 [Example 89, {3-[(E)-2-cyano-3-(6,11-dihydro-dibenzo[b,e]azepin-5-yl)-3-oxo-propenyl]-indol-1-yl}-acetic acid]
66	9	N#C/C(=C\c1cn(CC(=O)O)c2ccccc12)C(=O)N1c2ccccc2Sc2ccc(Cl)cc21 [Example 113, {3-[(E)-3-(2-chloro-phenothiazin-10-yl)-2-cyano-3-oxo-propenyl]-indol-1-yl}-acetic acid]
58	76	Cc1ccc(NC(=O)/C(C#N)=C/c2cn(CC(=O)O)c3ccccc23)cc1Br [Example 70, {3-[(E)-2-(3-bromo-4-methyl-phenylcarbamoyl)-2-cyano-vinyl]-indol-1-yl}-acetic acid]
98	18	N#C/C(=C\c1cn(CC(=O)O)c2ccccc12)C(=O)Nc1cccc(C(=O)c2ccccc2)c1 [Example 54, {3-[(E)-2-(3-benzoyl-phenylcarbamoyl)-2-cyano-vinyl]-indol-1-yl}-acetic acid]
181	10	CC(=O)c1ccc(N(C)C(=O)/C(C#N)=C/c2cn(CC(=O)O)c3ccccc23)cc1 [Example 94, (3-{(E)-2-[(4-acetyl-phenyl)-methyl-carbamoyl]-2-cyano-vinyl}-indol-1-yl)-acetic acid]
61	40	COc1ccc(Cl)cc1NC(=O)/C(C#N)=C/c1cn(CC(=O)O)c2ccccc12 [Example 64, {3-[(E)-2-(5-chloro-2-methoxy-phenylcarbamoyl)-2-cyano-vinyl]-indol-1-yl}-acetic acid]
146	35	N#C/C(=C\c1cn(CC(=O)O)c2ccccc12)C(=O)Nc1ccccc1Oc1ccc(Cl)cc1Cl [Example 49, (3-{(E)-2-cyano-2-[2-(2,4-dichloro-phenoxy)-phenylcarbamoyl]-vinyl}-indol-1-yl)-acetic acid]
